Results as given in the NIST ThermoML archive (doi:10.1016/j.tca.2015.01.022).
Numbers after ± are expanded uncertainties.

Experiment: molar heat capacity at constant pressure
Settings: 101.33 kPa, Glass, Small (less than 1 g) adiabatic calorimetry

CCOS(=O)(=O)[O-].CCn1cc[n+](C)c1 [1-ethyl-3-methylimidazolium ethyl sulfate]
Settings | molar heat capacity at constant pressure [J/K/mol]
5 K | 1.02 ± 0.04
7.21 K | 2.892 ± 0.072
7.52 K | 3.232 ± 0.078
7.89 K | 3.662 ± 0.086
8.26 K | 4.116 ± 0.093
8.64 K | 4.61 ± 0.1
9.02 K | 5.113 ± 0.11
9.4 K | 5.662 ± 0.12
9.78 K | 6.226 ± 0.13
10 K | 6.55 ± 0.14
10.17 K | 6.81 ± 0.14
10.66 K | 7.609 ± 0.15
11.26 K | 8.587 ± 0.16
11.87 K | 9.634 ± 0.17
12.47 K | 10.71 ± 0.18
13.09 K | 11.85 ± 0.19
13.7 K | 13.01 ± 0.2
14.32 K | 14.24 ± 0.21
14.95 K | 15.52 ± 0.22
15 K | 15.63 ± 0.23
15.69 K | 17.06 ± 0.23
16.54 K | 18.87 ± 0.24
17.39 K | 20.71 ± 0.25
18.24 K | 22.56 ± 0.25
19.1 K | 24.43 ± 0.26
19.96 K | 26.32 ± 0.26
20 K | 26.45 ± 0.27
21.16 K | 29.04 ± 0.28
22.71 K | 32.61 ± 0.3
24.26 K | 36.22 ± 0.31
25 K | 37.93 ± 0.32
25.81 K | 39.86 ± 0.33
27.37 K | 43.43 ± 0.34
28.95 K | 47.02 ± 0.35
30 K | 49.4 ± 0.32
30.54 K | 50.61 ± 0.32
32.28 K | 54.42 ± 0.34
33.12 K | 56.24 ± 0.35
35 K | 60.18 ± 0.37
35.01 K | 60.28 ± 0.37
36.91 K | 64.15 ± 0.39
38.82 K | 68 ± 0.41
40 K | 70.37 ± 0.43
40.72 K | 71.74 ± 0.43
42.73 K | 75.61 ± 0.45
44.84 K | 79.65 ± 0.48
45 K | 79.98 ± 0.48
46.95 K | 83.58 ± 0.5
49.06 K | 87.43 ± 0.52
50 K | 89 ± 0.53
51.17 K | 91.07 ± 0.54
53.29 K | 94.63 ± 0.55
55.41 K | 98.01 ± 0.57
57.53 K | 101.3 ± 0.6
59.66 K | 104.5 ± 0.6
60 K | 105.1 ± 0.6
61.79 K | 107.7 ± 0.6
63.92 K | 110.7 ± 0.6
66.06 K | 113.7 ± 0.7
68.21 K | 116.6 ± 0.7
70 K | 119 ± 0.7
70.35 K | 119.5 ± 0.7
72.59 K | 122.4 ± 0.7
74.94 K | 125.3 ± 0.7
77.3 K | 128.3 ± 0.7
79.66 K | 131.2 ± 0.8
80 K | 131.5 ± 0.7
80.4 K | 132.1 ± 0.8
82.02 K | 133.9 ± 0.8
82.22 K | 134.2 ± 0.8
84.05 K | 136.2 ± 0.8
84.39 K | 136.7 ± 0.8
85.88 K | 138.3 ± 0.8
87.71 K | 140.4 ± 0.8
89.54 K | 142.4 ± 0.8
90 K | 143 ± 0.8
91.38 K | 144.4 ± 0.8
93.22 K | 146.5 ± 0.8
95.06 K | 148.5 ± 0.8
96.91 K | 150.4 ± 0.8
98.76 K | 152.4 ± 0.8
100 K | 153.7 ± 0.8
100.61 K | 154.3 ± 0.8
102.46 K | 156.2 ± 0.9
104.31 K | 158 ± 0.9
106.16 K | 159.9 ± 0.9
108.05 K | 161.9 ± 0.9
109.91 K | 163.7 ± 0.9
110 K | 163.7 ± 0.9
111.77 K | 165.5 ± 0.9
113.63 K | 167.3 ± 0.9
115.49 K | 169.2 ± 0.9
117.36 K | 171 ± 0.9
119.23 K | 172.8 ± 0.9
120 K | 173.5 ± 0.9
121.1 K | 174.6 ± 0.9
122.98 K | 176.4 ± 1
124.42 K | 177.8 ± 1
124.85 K | 178.2 ± 1
126.41 K | 179.7 ± 1
126.73 K | 180 ± 1
128.28 K | 181.4 ± 1
128.61 K | 181.8 ± 1
130 K | 183.1 ± 1
130.16 K | 183.3 ± 1
130.5 K | 183.6 ± 1
132.03 K | 185.1 ± 1
132.38 K | 185.4 ± 1
133.91 K | 186.9 ± 1
134.27 K | 187.2 ± 1
135.79 K | 188.7 ± 1
136.16 K | 189.1 ± 1
137.67 K | 190.6 ± 1
138.05 K | 190.9 ± 1
139.55 K | 192.4 ± 1
139.95 K | 192.7 ± 1
140 K | 192.8 ± 1.1
141.43 K | 194.2 ± 1
141.84 K | 194.5 ± 1
143.31 K | 196 ± 1
143.74 K | 196.4 ± 1.1
145.19 K | 197.9 ± 1.1
145.64 K | 198.2 ± 1.1
147.07 K | 199.7 ± 1.1
147.53 K | 200.1 ± 1.1
148.95 K | 201.6 ± 1.1
149.43 K | 202 ± 1.1
150 K | 202.6 ± 1.1
150.83 K | 203.5 ± 1.1
151.33 K | 203.9 ± 1.1
152.71 K | 205.3 ± 1.1
153.23 K | 205.8 ± 1.1
154.59 K | 207.2 ± 1.1
155.13 K | 207.8 ± 1.1
155.16 K | 207.7 ± 1.1
156.47 K | 209.1 ± 1.1
157.04 K | 209.7 ± 1.1
157.27 K | 209.9 ± 1.1
158.34 K | 211.1 ± 1.1
158.94 K | 211.7 ± 1.1
159.27 K | 212 ± 1.1
160 K | 212.7 ± 1.2
160.22 K | 213.1 ± 1.1
160.84 K | 213.8 ± 1.1
161.27 K | 214.3 ± 1.1
162.09 K | 215 ± 1.1
162.75 K | 215.8 ± 1.1
163.26 K | 216.4 ± 1.1
163.96 K | 217.2 ± 1.2
164.67 K | 217.8 ± 1.2
165.26 K | 218.6 ± 1.2
165.83 K | 219.3 ± 1.2
166.58 K | 220.1 ± 1.2
167.25 K | 221 ± 1.2
167.7 K | 221.5 ± 1.2
168.51 K | 222.3 ± 1.2
169.24 K | 223.4 ± 1.2
169.57 K | 223.8 ± 1.2
170 K | 224.3 ± 1.2
170.43 K | 224.8 ± 1.2
171.36 K | 226.2 ± 1.2
171.44 K | 226.5 ± 1.2
172.36 K | 227.7 ± 1.2
173.31 K | 229.1 ± 1.2
173.44 K | 229.3 ± 1.2
174.29 K | 230.5 ± 1.2
175.18 K | 232 ± 1.2
175.43 K | 232.4 ± 1.2
176.22 K | 233.7 ± 1.2
177.04 K | 235.4 ± 1.2
177.41 K | 236.3 ± 1.2
178.16 K | 237.7 ± 1.3
178.9 K | 239.4 ± 1.3
179.39 K | 240.8 ± 1.3
180 K | 242.6 ± 1.3
180.1 K | 242.9 ± 1.3
